Several values for one entry are separate records, joined by “and”; a condition that tells them apart may be missing. Equal values may be shown once.
Key:
[1] = biological target: T1, CYP2C19 (Homo sapiens, UniProt P33261); test: Reversible CYP inhibition in HLM, CYP2C19 (S-mephenytoin); type: in vitro ADME; conditions: for enzyme activity remaining: CYP2C19, HLM
T1 construct: tissue Life Technologies (Durham, NC, USA); host or cells: human liver microsomes
Experimental: The markers used to determine the activities of CYP isoforms were phenacetin O-deethylation for CYP1A2 (probe substrate: 50 µM phenacetin), bupropion hydroxylation for CYP2B6 (probe substrate: 70 µM bupropion), paclitaxel 6α-hydroxylation for CYP2C8 (probe substrate: 10 µM paclitaxel), diclofenac 4′-hydroxylation for CYP2C9 (probe substrate: 5 µM diclofenac), S-(+)-mephenytoin 4′-hydroxylation for CYP2C19 (probe substrate: 20 µM S-(+)-mephenytoin), dextromethorphan O-demethylation for CYP2D6 (probe substrate: 6 µM dextromethorphan), chlorzoxazone 6′-hydroxylation for CYP2E1 (probe substrate: 70 µM chlorzoxazone), and testosterone 6β-hydroxylation and midazolam 1′-hydroxylation for CYP3A4/5 (probe substrate: 45 µM testosterone and 5 µM midazolam). […] Alpha-naphthoflavone (0.04 µM), 2-phenyl-2-(1-piperidinyl)propane (5 µM), quercetin (1 µM), sulfaphenazole (0.5 µM), ticlopidine (4 µM), quinidine (0.2 µM), diethyldithiocarbamate (20 µM), and ketoconazole (0.05 µM) were used as positive inhibitors of CYP1A2, 2B6, 2C8, 2C9, 2C19, 2D6, 2E1, and 3A4, respectively. The vehicle control was prepared in the same composition as inhibitor solutions but free of inhibitors. The concentrations of probe substrates were close to Km values that were determined in-house and within the range recommended by the FDA ([Huang et al., 2007]). Reaction mixtures were incubated at 37°C for 5, 20, or 30 min, depending on the probe substrates of CYP isoforms. The reactions were terminated by adding cold acetonitrile containing IS, and the terminated incubation mixtures were centrifuged at 3,000 g for 10 min before LC-MS/MS analysis.

[2] = biological target: T2, MATE1 (Homo sapiens, UniProt Q96FL8); test: MATE1 inhibition, tetraethylammonium uptake in transfected HEK293 cells
T2 sequence (Q96FL8 1-570): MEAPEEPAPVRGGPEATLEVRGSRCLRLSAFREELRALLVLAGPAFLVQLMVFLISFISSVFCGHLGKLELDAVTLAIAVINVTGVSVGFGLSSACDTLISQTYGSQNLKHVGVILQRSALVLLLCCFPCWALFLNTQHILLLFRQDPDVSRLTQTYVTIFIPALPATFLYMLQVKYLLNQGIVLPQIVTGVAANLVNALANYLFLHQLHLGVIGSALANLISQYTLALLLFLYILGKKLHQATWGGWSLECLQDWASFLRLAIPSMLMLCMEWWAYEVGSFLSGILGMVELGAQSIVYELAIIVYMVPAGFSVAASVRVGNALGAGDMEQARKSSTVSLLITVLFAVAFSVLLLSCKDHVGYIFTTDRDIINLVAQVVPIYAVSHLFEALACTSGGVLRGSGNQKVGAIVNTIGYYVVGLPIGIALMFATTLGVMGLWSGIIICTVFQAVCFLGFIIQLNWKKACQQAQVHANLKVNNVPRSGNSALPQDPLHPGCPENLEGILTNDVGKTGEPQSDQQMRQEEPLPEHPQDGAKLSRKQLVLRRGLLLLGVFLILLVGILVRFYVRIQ
Experimental: The pre-incubation solutions were removed, and incubation solutions containing the inhibitors and probe substrates (or transport buffer containing an equal volume of vehicle control and probe substrates) were added and incubated at 37°C for 2 min (5 min for OATP1B3). The probe substrate for OAT1 was 4-aminohippuric acid (10 μM), for OAT3 was estrone 3-sulfate (10 μM), for OCT2 was metformin (100 μM), for OATP1B1 was β-estradiol 17-(β-D-glucuronide) (5 μM), for OATP1B3 was β-estradiol 17-(β-D-glucuronide) (10 μM), and for MATE1 and MATE2-K was tetraethylammonium (10 μM). After incubation, cells were washed three times with ice-cold transport buffer (25 mM HEPES, pH 7.4, pH 8.0 for overexpressing MATE1 and MATE2-K HEK293 cells) and lysed in distilled water. The concentrations of probe substrates were determined by LC-MS/MS, and a BCA Kit (Solarbio ®Life Sciences, Beijing, China) was used to determine the protein content in the cell lysate.
where C is the concentration of the drug in the cell lysate (nM), P is the protein concentration of the cell lysate (mg/mL), and T is the incubation time (minute). Uptake ratetest compound is the uptake rate of the substrate in the presence of the test compound. Uptake ratevehicle control is the uptake rate of the substrate in the presence of the vehicle control. Uptake ratepassive is the uptake rate of the substrate in the presence of the positive inhibitor at the top test concentration.

T1 sequence (P33261 whole entry): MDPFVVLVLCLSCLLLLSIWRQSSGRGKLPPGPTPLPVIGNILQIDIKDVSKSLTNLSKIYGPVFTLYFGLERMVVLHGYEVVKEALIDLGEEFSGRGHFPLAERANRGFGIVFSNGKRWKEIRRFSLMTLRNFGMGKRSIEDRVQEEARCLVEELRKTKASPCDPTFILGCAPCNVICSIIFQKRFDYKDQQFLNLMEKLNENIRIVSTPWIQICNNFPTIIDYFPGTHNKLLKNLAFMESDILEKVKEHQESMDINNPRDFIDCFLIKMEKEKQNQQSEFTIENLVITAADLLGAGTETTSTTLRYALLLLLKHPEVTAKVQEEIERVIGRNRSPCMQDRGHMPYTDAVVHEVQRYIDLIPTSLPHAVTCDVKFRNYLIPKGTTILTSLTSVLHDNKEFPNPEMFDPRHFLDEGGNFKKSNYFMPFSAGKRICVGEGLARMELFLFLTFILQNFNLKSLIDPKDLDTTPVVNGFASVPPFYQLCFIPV

C[C@H](Nc1ncnc(N)c1C#N)c1cc2ncc(Cl)n2nc1-c1ccccc1 [Amdizalisib]
enzyme activity remaining ([1]; 0.08 μM): 97.1% and 111% | enzyme activity remaining ([1]; 0.4 μM): 105% | enzyme activity remaining ([1]; 0.4 μM, listed as amdizalisib): 99.5% | enzyme activity remaining ([1]; 2 μM): 102% and 98.0% | enzyme activity remaining ([1]; 10 μM): 96.6% and 88.1% | enzyme activity remaining ([1]; 50 μM): 68.6% and 65.9% | IC50 ([1]; HLM, reversible, without pre-incubation): > 50 µM | IC50 [2]: 16.2 µM | calculated R value (MATE-1) [2]: < 1.1 | Percentage transported ([2]; MATE1, compound 0.3 μM): 98.0% | Uptake rate ([2]; MATE1, compound 0.3 μM): 244±23.4 pmol/mg protein/min | Percentage transported ([2]; MATE1, compound 1 μM): 86.1% | Uptake rate ([2]; MATE1, compound 1 μM): 216±1.37 pmol/mg protein/min | Percentage transported ([2]; MATE1, compound 3 μM): 73.2% | Uptake rate ([2]; MATE1, compound 3 μM): 186±12.4 pmol/mg protein/min | Percentage transported ([2]; MATE1, compound 10 μM): 49.2% | Uptake rate ([2]; MATE1, compound 10 μM): 129±1.08 pmol/mg protein/min | Percentage transported ([2]; MATE1, compound 30 μM): 47.8% | Uptake rate ([2]; MATE1, compound 30 μM): 126±22.8 pmol/mg protein/min | Percentage transported ([2]; MATE1, compound 100 μM): 23.6% | Uptake rate ([2]; MATE1, compound 100 μM): 68.4±2.28 pmol/mg protein/min | inhibition at 2 min, 0.3 µM ([2]; human, pH 8): 2.01% | inhibition at 2 min, 1 µM ([2]; human, pH 8): 13.9% | inhibition at 2 min, 3 µM ([2]; human, pH 8): 26.8% | inhibition at 2 min, 10 µM ([2]; human, pH 8): 50.8% | inhibition at 2 min, 30 µM ([2]; human, pH 8): 52.2% | inhibition at 2 min, 100 µM ([2]; human, pH 8): 76.4%

Source: publication PMC11211886 (Frontiers in Pharmacology, 2024)
